From patent publication EP4273147A1, “SUBSTITUTED SPIROLACTAMS, SALTS THEREOF AND THEIR USE AS HERBICIDALLY ACTIVE SUBSTANCES” (Bayer Aktiengesellschaft, priority 2022, dated 2023)

Experiments:
[1] = tested on: KCHSC; assay: Herbicidal pre-emergence action (Table A10); assay type: in vivo, Kochia scoparia; settings: application rate 1280 g/ha; visual grading after ca. 3 weeks
Outline: (§1)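 Sandy loam filled the pots; weed seeds went in as paired sowings of one grass-type and one broadleaf species, then were covered with soil.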

[2] = tested on: ORYZA; assay: Post-emergence effects on crop plants (Table F3); assay type: in vivo, Oryza sativa; settings: application rate 320 g/ha, crop plant ORYZA
Excerpt: (§2) 2 to 3 weeks after sowing, the test plants were sprayed in the single-leaf stage.

[3] = tested on: ECHCG; assay: Herbicidal post-emergence action (Table B3); assay type: in vivo, Echinochloa crus-galli; settings: application rate 320 g/ha; rated visually after about 3 weeks
Outline: (§3)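 Greenhouse post-emergence screen on potted weeds in sandy loam, treatment at one-leaf stage, visual % control scored ~3 weeks later against untreated plants.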

[4] = tested on: VIOTR; assay: Herbicidal pre-emergence action, section C (Table C12); assay type: in vivo, Viola tricolor; settings: application rate 80 g/ha; visual grading after ca. 3 weeks
[5] = tested on: ALOMY; assay: Herbicidal pre-emergence action (Table A9); assay type: in vivo, Alopecurus myosuroides; settings: application rate 320 g/ha; visual grading after ca. 3 weeks
Outline: as §1

[6] = tested on: AMARE; assay: Herbicidal post-emergence action (Table B11); assay type: in vivo, Amaranthus retroflexus; settings: application rate 1280 g/ha
Outline: as §3

[7] = tested on: MATIN; assay: Herbicidal pre-emergence action, section C (Table C8); assay type: in vivo, Matricaria inodora; settings: application rate 320 g/ha; visual grading after ca. 3 weeks
[8] = tested on: BRSNW; assay: Pre-emergence effects on crop plants (Table D5); assay type: in vivo, Brassica napus; settings: crop plant; application rate 80 g/ha; visual grading after ca. 3 weeks
[9] = tested on: ECHCG; assay: Herbicidal post-emergence action, section E (Table E5); assay type: in vivo, Echinochloa crus-galli; settings: application rate 80 g/ha; assessed visually after ca. 3 weeks
Excerpt: as §2

[10] = tested on: TRZAS; assay: Post-emergence effects on crop plants (Table F2); assay type: in vivo, Triticum aestivum; settings: application rate 80 g/ha, crop plant TRZAS
Excerpt: as §2

[11] = tested on: POAAN; assay: Herbicidal pre-emergence action (Table A7); assay type: in vivo, Poa annua; settings: application rate 320 g/ha; visual grading after ca. 3 weeks
Outline: as §1

[12] = tested on: LOLRI; assay: Herbicidal post-emergence action (Table B5); assay type: in vivo, Lolium rigidum; settings: application rate 1280 g/ha; rated visually after about 3 weeks
Protocol: (§4) Seeds of mono- and dicotyledonous weed plants were placed in plastic pots in sandy loam soil (doubly sown with in each case one species of mono- or dicotyledonous weed plants per pot), covered with soil and cultivated in a greenhouse under controlled growth conditions. 2 to 3 weeks after sowing, the test plants were treated at the one-leaf stage. […] After the test plants had been kept in the greenhouse under optimum growth conditions for about 3 weeks, the activity of the preparations was rated visually in comparison to untreated controls. For example, 100% activity = the plants have died, 0% activity = like control plants.

[13] = tested on: SETVI; assay: Herbicidal pre-emergence action, section C (Table C10); assay type: in vivo, Setaria viridis; settings: application rate 80 g/ha; visual grading after ca. 3 weeks
[14] = tested on: ABUTH; assay: Herbicidal post-emergence action (Table B1); assay type: in vivo, Abutilon theophrasti; settings: application rate 1280 g/ha; treated at one-leaf stage; rated visually after about 3 weeks vs untreated controls (100% = plants have died, 0% = like control plants)
Outline: as §3

[15] = tested on: ABUTH; assay: Herbicidal pre-emergence action (Table A1); assay type: in vivo, Abutilon theophrasti; settings: application rate 320 g/ha; visual grading after ca. 3 weeks vs untreated controls (100% = plants have died off, 0% = as control plants)
Outline: as §1

[16] = tested on: MATIN; assay: Herbicidal post-emergence action (Table B6); assay type: in vivo, Matricaria inodora; settings: application rate 1280 g/ha; rated visually after about 3 weeks
Outline: as §3

[17] = tested on: ALOMY; assay: Herbicidal post-emergence action (Table B2); assay type: in vivo, Alopecurus myosuroides; settings: application rate 320 g/ha; rated visually after about 3 weeks
Protocol: as §4

[18] = tested on: ORYZA; assay: Pre-emergence effects on crop plants (Table D3); settings: crop plant; application rate 80 g/ha; visual grading after ca. 3 weeks
[19] = tested on: AMARE; assay: Herbicidal pre-emergence action (Table A8); assay type: in vivo, Amaranthus retroflexus; settings: application rate 1280 g/ha; visual grading after ca. 3 weeks vs untreated controls (100% = plants have died off, 0% = as control plants)
Outline: as §1

[20] = tested on: POLCO; assay: Herbicidal pre-emergence action, section C (Table C9); assay type: in vivo, Polygonum convolvulus; settings: application rate 320 g/ha; visual grading after ca. 3 weeks
Excerpt: (§5) Seeds of mono- and dicotyledonous weed plants and crop plants were sown, in plastic or organic planting pots, in sandy loam and covered with soil. The compounds according to the invention, formulated in the form of wettable powders (WP) or as emulsifiable concentrates (EC), were applied to the surface of the covering soil as aqueous suspension or emulsion, with the addition of 0.5% of an additive, at an application rate of 600 1 of water/ha (converted). Following treatment, the pots were placed in a greenhouse and kept under optimum growth conditions for the test plants.

[21] = tested on: ECHCG; assay: Herbicidal pre-emergence action (Table A2); assay type: in vivo, Echinochloa crus-galli; settings: application rate 320 g/ha; visual grading after ca. 3 weeks
Outline: as §1

[22] = tested on: LOLRI; assay: Herbicidal pre-emergence action (Table A3); assay type: in vivo, Lolium rigidum; settings: application rate 320 g/ha; visual grading after ca. 3 weeks
Outline: as §1

[23] = tested on: STEME; assay: Herbicidal post-emergence action (Table B9); assay type: in vivo, Stellaria media; settings: application rate 1280 g/ha
Protocol: as §4

[24] = tested on: ALOMY; assay: Herbicidal pre-emergence action, section C (Table C2); assay type: in vivo, Alopecurus myosuroides; settings: application rate 320 g/ha; visual grading after ca. 3 weeks
[25] = tested on: ALOMY; assay: Herbicidal post-emergence action, section E (Table E2); assay type: in vivo, Alopecurus myosuroides; settings: application rate 320 g/ha; assessed visually after ca. 3 weeks
Excerpt: as §2

[26] = tested on: VIOTR; assay: Herbicidal post-emergence action, section E (Table E10); assay type: in vivo, Viola tricolor; settings: application rate 320 g/ha; assessed visually after ca. 3 weeks
Excerpt: as §2

[27] = tested on: POAAN; assay: Herbicidal post-emergence action (Table B7); assay type: in vivo, Poa annua; settings: application rate 320 g/ha
Outline: as §3

[28] = tested on: BRSNW; assay: Post-emergence effects on crop plants (Table F5); assay type: in vivo, Brassica napus; settings: application rate 80 g/ha, crop plant BRSNW
Excerpt: as §2

[29] = tested on: TRZAS; assay: Pre-emergence effects on crop plants (Table D2); assay type: in vivo, Triticum aestivum; settings: crop plant; application rate 80 g/ha; visual grading after ca. 3 weeks
[30] = tested on: MATIN; assay: Herbicidal pre-emergence action (Table A4); assay type: in vivo, Matricaria inodora; settings: application rate 320 g/ha; visual grading after ca. 3 weeks
Outline: as §1

[31] = tested on: SETVI; assay: Herbicidal post-emergence action, section E (Table E8); assay type: in vivo, Setaria viridis; settings: application rate 320 g/ha; assessed visually after ca. 3 weeks
Excerpt: as §2

[32] = tested on: ECHCG; assay: Herbicidal pre-emergence action, section C (Table C6); assay type: in vivo, Echinochloa crus-galli; settings: application rate 80 g/ha; visual grading after ca. 3 weeks
Excerpt: as §5

[33] = tested on: LOLRI; assay: Herbicidal pre-emergence action, section C (Table C7); assay type: in vivo, Lolium rigidum; settings: application rate 80 g/ha; visual grading after ca. 3 weeks
[34] = tested on: STEME; assay: Herbicidal pre-emergence action (Table A6); assay type: in vivo, Stellaria media; settings: application rate 320 g/ha; visual grading after ca. 3 weeks
Outline: as §1

[35] = tested on: SETVI; assay: Herbicidal post-emergence action (Table B8); assay type: in vivo, Setaria viridis; settings: application rate 1280 g/ha
Outline: as §3

[36] = tested on: VERPE; assay: Herbicidal pre-emergence action, section C (Table C11); assay type: in vivo, Veronica persica; settings: application rate 320 g/ha; visual grading after ca. 3 weeks
[37] = tested on: ABUTH; assay: Herbicidal pre-emergence action, section C (Table C1); assay type: in vivo, Abutilon theophrasti; settings: application rate 320 g/ha; visual grading after ca. 3 weeks
Excerpt: as §5

[38] = tested on: VERPE; assay: Herbicidal post-emergence action (Table B10); assay type: in vivo, Veronica persica; settings: application rate 320 g/ha
Outline: as §3

[39] = tested on: ZEAMX; assay: Post-emergence effects on crop plants (Table F1); assay type: in vivo, Zea mays; settings: application rate 80 g/ha, crop plant ZEAMX
Excerpt: as §2

[40] = tested on: VERPE; assay: Herbicidal pre-emergence action (Table A11); assay type: in vivo, Veronica persica; settings: application rate 320 g/ha; visual grading after ca. 3 weeks
Outline: as §1

[41] = tested on: SETVI; assay: Herbicidal pre-emergence action (Table A5); assay type: in vivo, Setaria viridis; settings: application rate 320 g/ha; visual grading after ca. 3 weeks
Outline: as §1

[42] = tested on: GLXMA; assay: Post-emergence effects on crop plants (Table F4); assay type: in vivo, Glycine max; settings: application rate 80 g/ha, crop plant GLXMA
Excerpt: as §2

[43] = tested on: VERPE; assay: Herbicidal post-emergence action, section E (Table E9); assay type: in vivo, Veronica persica; settings: application rate 320 g/ha; assessed visually after ca. 3 weeks
Excerpt: as §2

## O=C1N(Cc2ccccc2F)CCCC12CCCN(Cc1ccccc1F)C2=O (racemic) [I-005]
[1]
  pre-emergence activity against KCHSC: 90%
[2]
  post-emergence activity against ORYZA: 0%
[3]
  post-emergence activity against ECHCG: 100%
[4]
  pre-emergence activity against VIOTR: 80%
[5]
  pre-emergence activity against ALOMY: 90%
[6]
  post-emergence activity against AMARE: 100%
[7]
  pre-emergence activity against MATIN: 90%
[8]
  pre-emergence activity against BRSNW: 0%
[9]
  post-emergence activity against ECHCG: 80%
[10]
  post-emergence activity against TRZAS: 20%
[11]
  pre-emergence activity against POAAN: 100%
[12]
  post-emergence activity against LOLRI: 90%
[13]
  pre-emergence activity against SETVI: 100%
[14]
  post-emergence activity against ABUTH: 90%
[15]
  pre-emergence activity against ABUTH: 90%
[16]
  post-emergence activity against MATIN: 100%
[17]
  post-emergence activity against ALOMY: 90%
[18]
  pre-emergence activity against ORYZA: 20%
[19]
  pre-emergence activity against AMARE: 90%
[20]
  pre-emergence activity against POLCO: 80%
[21]
  pre-emergence activity against ECHCG: 100%
[22]
  pre-emergence activity against LOLRI: 100%
[23]
  post-emergence activity against STEME: 90%
[24]
  pre-emergence activity against ALOMY: 100%
[25]
  post-emergence activity against ALOMY: 90%
[26]
  post-emergence activity against VIOTR: 80%
[27]
  post-emergence activity against POAAN: 100%
[28]
  post-emergence activity against BRSNW: 20%
[29]
  pre-emergence activity against TRZAS: 20%
[30]
  pre-emergence activity against MATIN: 100%
[31]
  post-emergence activity against SETVI: 90%
[32]
  pre-emergence activity against ECHCG: 100%
[33]
  pre-emergence activity against LOLRI: 80%
[34]
  pre-emergence activity against STEME: 90%
[35]
  post-emergence activity against SETVI: 100%
[36]
  pre-emergence activity against VERPE: 80%
[37]
  pre-emergence activity against ABUTH: 80%
[38]
  post-emergence activity against VERPE: 90%
[39]
  post-emergence activity against ZEAMX: 20%
[40]
  pre-emergence activity against VERPE: 100%
[41]
  pre-emergence activity against SETVI: 100%
[42]
  post-emergence activity against GLXMA: 20%
[43]
  post-emergence activity against VERPE: 80%
